Where two headings read alike, the source gives them in different places.
What was measured:
[1] = tested on: Dengue 2 strain New Guinea C; experiment: Dengue CPE assay; type: cell-based, Dengue virus 2; conditions: Table 6, BHK-21 cells, 3 days, 50% cells surviving, read-out: EC50, activity against dengue virus
Description: Dengue CPE Assay. To measure cytopathic effect of Dengue virus 2, BHK-21 ([…], CCL-10 ATCC Manassas, Va.) cells were seeded at a density of 20,000 cells/well in a 96-well black/clear bottom plates (Becton Dickinson, Franklin Lakes, N.J.) one day prior to start of the assay and allowed to attach overnight in EMEM (ATCC Manassas, Va.) +10% FBS (Invitrogen, Carlsbad, Calif.) at 37° C. in a humidified 5% CO2 atmosphere. The next day, the medium was removed and the cells were infected with Dengue 2 strain New Guinea C (VR-1584, ATCC Manassas, Va.) at an MOI of 0.08 pfu/cell for two hours in 50 μL EMEM+2% FBS. For both the single point and dose response assays, compounds (2× concentration) were diluted in EMEM+2% FBS and 50 μL was added to infected cells without removing virus. Cells were incubated for 3 days at 37° C. in a humidified 5% CO2 atmosphere. The medium was aspirated and 50 μL of CellTiter-Glo (Promega, Madison, Wis.) was added to each well and read for 0.1 seconds on a Perkin Elmer Victor3 (Waltham, Mass.) plate reader. Percent survival was determined by subtracting the average value of infected control wells and normalizing to the non-infected wells. The effective concentration was calculated from the dose response data by forecasting 50% cells surviving with drug treatment.

HCV replicon = HCV replicon assay (Clone A cells and ET-lunet cells, HCV RNA by real time PCR); type: cell-based, hepatitis C virus; conditions: for EC90: read-out: EC90, anti-HCV 1b activity
Description: HCV replicon assay. HCV replicon assays using Clone A cells and ET-lunet cells were performed as described previously. L. J. Stuyver et al. Antimicrob. Agents Chemother. 2004, 48, 651-654. Briefly, Clone A cells and ET-lunet cells were seeded at a density of 1500 and 3000 cells per well in a 96-well plate, respectively. Test compounds serially diluted in culture medium without G418 were added to cells. Plates were incubated at 37° C. in a 5% CO2 atmosphere for 4 days. Inhibition of HCV RNA replication was determined by quantitative real time PCR. See, e.g., L. J. Stuyver et al. Antiviral Chem. Chemother. 2006, 17, 79-87.
To express the antiviral effectiveness of a compound, the threshold RT-PCR cycle of the test compound was subtracted from the average threshold RT-PCR cycle of the no-drug control (ΔCtHCV). A ΔCt of 3.3 equals a 1-log 10 reduction (equal to the 90% effective concentration [EC90]) in replicon RNA levels. The cytotoxicity of the test compound could also be expressed by calculating the ΔCtrRNA values. The ΔΔCt specificity parameter could then be introduced (ΔCtHCV-ΔCtrRNA), in which the levels of HCV RNA are normalized for the rRNA levels and calibrated against the no-drug control.

[2] = Cytotoxicity reported with the dengue assay; type: cell-based; conditions: Table 6; cell line not stated
[3] = Cell cytotoxicity assay (MTS); type: cell-based; conditions: human
Description: Cell cytotoxicity assays. Each compound (serially diluted from 100 μM) was added to Huh7 (2×10^3 cells/well), HepG2 (2×10^3 cells/well), BxPC3 (2×10^3 cells/well), or CEM (5×10^3 cells/well) cells and allowed to incubate for 8 days at 37° C. A medium only control was used to determine the minimum absorbance value […]. At the end of the growth period, MTS dye from the CellTiter 96 Aqueous One Solution Cell Proliferation Assay kit (Promega) was added to each well and the plate was incubated for an additional 2 hours. The absorbance at 490 nm was read with a Victor3 plate reader (Perkin Elmer) using the medium only control wells as blanks. The 50% inhibition value (CC50) was determined by comparing the absorbance in wells containing cells and test compound to untreated cell control wells.

[4] = Table 3, cell line not stated, read-out: CC50
[5] = Hepatitis C virus, 96 h, Table 4, cyclic phosphates, diastereomeric mixtures, read-out: EC50, anti-HCV 1b activity
[6] = Hepatitis C virus, 96 h, Table 4, cyclic phosphates, diastereomeric mixtures
[7] = Hepatitis C virus, 96 h, Table 1, HCV replicon, 4 days, read-out: EC50, anti-HCV activity of selected nucleosides
[8] = Hepatitis C virus, Table 2, HCV 1b replicon, unit inferred, read-out: EC50, anti-HCV 1b activity

Structure (SMILES): COc1nc(N)nc2c1ncn2C1OC(COP(=O)(N[C@@H](C)C(=O)OCC(C)C)Oc2ccccc2)[C@@H](O)[C@]12CCO2 (stereo partly drawn) [compound 124]
- EC50 ([1]; Dengue virus, BHK-21, 72 h): 2.21 µM
- EC50 (HCV replicon; Table 3, HCV 1b replicon, read-out: EC50, anti-HCV 1b activity): 0.566 µM
- EC90 (HCV replicon; Table 3, HCV 1b replicon): 1.81 µM
- CC50 [2]: > 20 µM
- CC50 at 8 days [3, 4]: > 20 µM

Structure (SMILES): COc1nc(N)nc2c1ncn2C1OC2COP(=O)(OCC(C)(C)C)O[C@H]2[C@]12CCO2 (stereo partly drawn) [compound 132]
- EC50 (HCV replicon; [5]): > 20 µM
- EC90 (HCV replicon; [6]): > 20 µM
- CC50 at 8 days [3]: > 20 µM

Structure (SMILES): COc1nc(N)nc2c1ncn2[C@@H]1O[C@H](CO)[C@@H](O)[C@]12CCO2 [compound 76, (4R,5R,7R,8R)-5-(2-amino-6-methoxy-9H-purin-9-yl)-7-(hydroxymethyl)-1,6-dioxaspiro[3.4]octan-8-ol]
- EC50 (HCV replicon; [7]): > 100 µM

Structure (SMILES): Nc1ccn([C@@H]2O[C@H](CO)[C@@H](O)[C@]23CCCO3)c(=O)n1 [compound 49, 4-amino-1-((5R,6R,8R,9R)-9-hydroxy-8-(hydroxymethyl)-1,7-dioxaspiro[4.4]nonan-6-yl)pyrimidin-2(1H)-one]
- EC50 (HCV replicon; [7]): > 100 µM

Structure (SMILES): COC(=O)[C@H](C)NP(=O)(OC[C@H]1O[C@@H](n2ccc(=O)[nH]c2=O)[C@@]2(CCO2)[C@@H]1O)Oc1ccccc1 (stereo partly drawn) [compound 117, (2S)-methyl 2-(((((4R,5R,7R,8R)-5-(2,4-dioxo-3,4-dihydropyrimidin-1 (2H)-yl)-8-hydroxy-1,6-dioxaspiro[3.4]octan-7-yl)methoxy)(phenoxy)phosphoryl)amino)propanoate]
- EC50 (HCV replicon; [8]): 16.7 µM

Structure (SMILES): COc1nc(N)nc2c1ncn2[C@@H]1O[C@H](CO)[C@@H](O)[C@@]12CCCO2 [compound 62, (5S,6R,8R,9R)-6-(2-amino-6-methoxy-9H-purin-9-yl)-8-(hydroxymethyl)-1,7-dioxaspiro[4.4]nonan-9-ol]
- EC50 (HCV replicon; [7]): > 20 µM

Structure (SMILES): COc1nc(N)nc2c1ncn2[C@@H]1O[C@H](CO)[C@@H](O)[C@]12CCCO2 [compound 72, (5R,6R,8R,9R)-6-(2-amino-6-methoxy-9H-purin-9-yl)-8-(hydroxymethyl)-1,7-dioxaspiro[4.4]nonan-9-ol]
- EC50 (HCV replicon; [7]): > 20 µM

Structure (SMILES): COc1nc(N)nc2c1ncn2C1OC2COP(=O)(OC3CCCC3)O[C@H]2[C@]12CCO2 (stereo partly drawn) [compound 134]
- EC90 (HCV replicon; [6]): > 20 µM
- EC50 (HCV replicon; Hepatitis C virus, Table 4, cyclic phosphates, diastereomeric mixtures, read-out: EC50, anti-HCV 1b activity): 14 µM
- CC50 at 8 days [3]: > 20 µM

Structure (SMILES): COc1nc(N)nc2c1ncn2[C@@H]1O[C@H](CO)[C@@H](O)[C@@]12CCO2 [compound 66, (4S,5R,7R,8R)-5-(2-amino-6-methoxy-9H-purin-9-yl)-7-(hydroxymethyl)-1,6-dioxaspiro[3.4]octan-8-ol]
- EC50 (HCV replicon; [7]): > 20 µM

Structure (SMILES): Nc1ccn([C@@H]2O[C@H](CO)[C@@H](O)[C@@]23CCCO3)c(=O)n1 [compound 50, 4-amino-1-((5S,6R,8R,9R)-9-hydroxy-8-(hydroxymethyl)-1,7-dioxaspiro[4.4]nonan-6-yl)pyrimidin-2(1H)-one]
- EC50 (HCV replicon; [7]): > 100 µM

Structure (SMILES): COc1nc(N)nc2c1ncn2C1OC(COP(=O)(N[C@@H](C)C(=O)OCc2ccccc2)Oc2ccccc2)[C@@H](O)[C@]12CCO2 (stereo partly drawn) [compound 130]
- EC50 [1]: 3.84 µM
- EC50 (HCV replicon; Hepatitis C virus, Table 3, HCV 1b replicon, read-out: EC50, anti-HCV 1b activity): 8.65 µM
- EC90 (HCV replicon; Hepatitis C virus, Table 3, HCV 1b replicon): 15.1 µM
- CC50 [2]: > 20 µM
- CC50 at 8 days [3, 4]: > 20 µM

Structure (SMILES): COC(=O)[C@H](C)NP(=O)(OC[C@H]1O[C@@H](n2cnc3c(OC)nc(N)nc32)[C@@]2(CCO2)[C@@H]1O)Oc1ccccc1 (stereo partly drawn) [compound 113, (2S)-methyl 2-(((((4R,5R,7R,8R)-5-(2-amino-6-methoxy-9H-purin-9-yl)-8-hydroxy-1,6-dioxaspiro[3.4]octan-7-yl)methoxy)(phenoxy)phosphoryl)amino)propanoate]
- EC50 ([1]; Dengue virus, BHK-21, 72 h): 6.23 µM
- EC50 (HCV replicon; [8]): 1.55 µM
- CC50 [2]: > 20 µM

Structure (SMILES): COC(=O)[C@H](C)NP(=O)(OC[C@H]1O[C@@H](n2ccc(=O)[nH]c2=O)[C@]2(CCCO2)[C@@H]1O)Oc1ccccc1 (stereo partly drawn) [compound 114, (2S)-methyl 2-(((((5S,6R,8R,9R)-6-(2,4-dioxo-3,4-dihydropyrimidin-1 (2H)-yl)-9-hydroxy-1,7-dioxaspiro[4.4]nonan-8-yl)methoxy)(phenoxy)phosphoryl)amino)propanoate]
- EC50 (HCV replicon; [8]): 20.6 µM

Structure (SMILES): O=c1ccn([C@@H]2O[C@H](CO)[C@@H](O)[C@]23CCO3)c(=O)[nH]1 [compound 48, 1-((4R,5R,7R,8R)-8-hydroxy-7-(hydroxymethyl)-1,6-dioxaspiro[3.4]octan-5-yl)pyrimidine-2,4(1H,3H)-dione]
- EC50 (HCV replicon; [7]): > 100 µM

Structure (SMILES): Nc1nc2c(ncn2[C@@H]2O[C@H](CO)[C@@H](O)[C@]23CCO3)c(=O)[nH]1 [compound 77, 2-amino-9-((4R,5R,7R,8R)-8-hydroxy-7-(hydroxymethyl)-1,6-dioxaspiro[3.4]octan-5-yl)-1H-purin-6(9H)-one]
- EC50 (HCV replicon; [7]): > 20 µM

Structure (SMILES): Nc1ccn([C@@H]2O[C@H](CO)[C@@H](O)[C@]23CCO3)c(=O)n1 [compound 52, 4-amino-1-((4R,5R,7R,8R)-8-hydroxy-7-(hydroxymethyl)-1,6-dioxaspiro[3.4]octan-5-yl)pyrimidin-2(1H)-one]
- EC50 (HCV replicon; [7]): > 54.5 µM

Structure (SMILES): COC(=O)[C@H](C)NP(=O)(OC[C@H]1O[C@@H](n2ccc(=O)[nH]c2=O)[C@]2(CCO2)[C@@H]1O)Oc1ccccc1 (stereo partly drawn) [compound 115, (2S)-methyl 2-(((((4S,5R,7R,8R)-5-(2,4-dioxo-3,4-dihydropyrimidin-1 (2H)-yl)-8-hydroxy-1,6-dioxaspiro[3.4]octan-7-yl)methoxy)(phenoxy)phosphoryl)amino)propanoate]
- EC50 (HCV replicon; [8]): 28.5 µM

Structure (SMILES): O=c1ccn([C@@H]2O[C@H](CO)[C@@H](O)[C@]23CCCO3)c(=O)[nH]1 [compound 44, 1-((5R,6R,8R,9R)-9-hydroxy-8-(hydroxymethyl)-1,7-dioxaspiro[4.4]nonan-6-yl)pyrimidine-2,4(1H,3H)-dione]
- EC50 (HCV replicon; [7]): > 100 µM

Structure (SMILES): COc1nc(N)nc2c1ncn2C1OC2COP(=O)(OC(C)C)O[C@H]2[C@]12CCO2 (stereo partly drawn) [compound 133]
- EC50 (HCV replicon; [5]): > 20 µM
- EC90 (HCV replicon; [6]): > 20 µM
- CC50 at 8 days [3]: > 20 µM

Structure (SMILES): Nc1ccn([C@@H]2O[C@H](CO)[C@@H](O)[C@@]23CCO3)c(=O)n1 [compound 51, 4-amino-1-((4S,5R,7R,8R)-8-hydroxy-7-(hydroxymethyl)-1,6-dioxaspiro[3.4]octan-5-yl)pyrimidin-2(1H)-one]
- EC50 (HCV replicon; [7]): > 100 µM

Structure (SMILES): O=c1ccn([C@@H]2O[C@H](CO)[C@@H](O)[C@@]23CCCO3)c(=O)[nH]1 [compound 32, 1-((5 S,6R,8R,9R)-9-hydroxy-8-(hydroxymethyl)-1,7-dioxaspiro[4.4]nonan-6-yl)pyrimidine-2,4(1H,3H)-dione]
- EC50 (HCV replicon; [7]): > 100 µM

Structure (SMILES): O=c1ccn([C@@H]2O[C@H](CO)[C@@H](O)[C@@]23CCO3)c(=O)[nH]1 [compound 36, 1-((4S,5R,7R,8R)-8-hydroxy-7-(hydroxymethyl)-1,6-dioxaspiro[3.4]octan-5-yl)pyrimidine-2,4(1H,3H)-dione]
- EC50 (HCV replicon; [7]): > 100 µM

Structure (SMILES): COC(=O)[C@H](C)NP(=O)(OC[C@H]1O[C@@H](n2ccc(=O)[nH]c2=O)[C@@]2(CCCO2)[C@@H]1O)Oc1ccccc1 (stereo partly drawn) [compound 116, (2S)-methyl 2-(((((5R,6R,8R,9R)-6-(2,4-dioxo-3,4-dihydropyrimidin-1 (2H)-yl)-9-hydroxy-1,7-dioxaspiro[4.4]nonan-8-yl)methoxy)(phenoxy)phosphoryl)amino)propanoate]
- EC50 (HCV replicon; [8]): 28.3 µM

From patent US9394331B2, “2′-spiro-nucleosides and derivatives thereof useful for treating hepatitis C virus and dengue virus infections” (priority 2010, dated 2016)
